Experimental data from ChEMBL document CHEMBL3822374, “Anti-inflammatory polyphenol constituents derived from Cissus pteroclada Hayata” (Bioorg Med Chem Lett, 2016).

How the values were obtained:
[1] = tested on: RAW264.7; experiment: Antiinflammatory activity against LPS-stimulated mouse RAW264.7 cells assessed as COX2 levels at 5 umol/L by ELISA (reference value: 159.64 +/- 13.56 pg/mL); type: functional
[2] = Inhibition of NFkappaB signaling pathway in LPS-stimulated mouse RAW264.7 cells assessed as protein levels at 50umol/L by ELISA (reference value: 1.23 +/- 0.06 pg/mL); type: cell-based
[3] = tested on: RAW264.7; experiment: Antiinflammatory activity against LPS-stimulated mouse RAW264.7 cells assessed as NO levels at 25 umol/L by ELISA (reference value: 0.95 +/- 0.052 umol/mL); type: functional
[4] = Inhibition of NFkappaB signaling pathway in LPS-stimulated mouse RAW264.7 cells assessed as protein levels at 5 umol/L by ELISA (reference value: 1.23 +/- 0.06 pg/mL); type: cell-based
[5] = tested on: RAW264.7; experiment: Cytotoxicity against LPS-stimulated mouse RAW264.7 cells assessed as reduction in cell viability at 50 umol/L after 24 hrs by MTT assay; type: cell-based; details: raw264.7, 24 h, 50 µM
[6] = tested on: RAW264.7; experiment: Antiinflammatory activity against LPS-stimulated mouse RAW264.7 cells assessed as iNOS levels at 5 umol/L by ELISA (reference value: 31.63 +/- 3.26 U/mL); type: functional
[7] = tested on: RAW264.7; experiment: Antiinflammatory activity against LPS-stimulated mouse RAW264.7 cells assessed as TNFalpha levels at 5 umol/L by ELISA (reference value: 183.21 +/- 5.36 pg/mL); type: functional
[8] = tested on: RAW264.7; experiment: Antiinflammatory activity against LPS-stimulated mouse RAW264.7 cells assessed as TNFalpha levels at 25 umol/L by ELISA (reference value: 183.21 +/- 5.36 pg/mL); type: functional
[9] = tested on: RAW264.7; experiment: Antiinflammatory activity against LPS-stimulated mouse RAW264.7 cells assessed as IL1beta levels at 25 umol/L by ELISA (reference value: 8.70 +/- 0.365 pg/mL); type: functional
[10] = tested on: RAW264.7; experiment: Antiinflammatory activity against LPS-stimulated mouse RAW264.7 cells assessed as IL1beta levels at 50 umol/L by ELISA (reference value: 8.70 +/- 0.365 pg/mL); type: functional
[11] = tested on: RAW264.7; experiment: Antiinflammatory activity against LPS-stimulated mouse RAW264.7 cells assessed as TNFalpha levels at 50 umol/L by ELISA (reference value: 183.21 +/- 5.36 pg/mL); type: functional
[12] = tested on: RAW264.7; experiment: Antiinflammatory activity against LPS-stimulated mouse RAW264.7 cells assessed as PGE2 levels at 25 umol/L by ELISA (reference value: 33.2 +/- 2.33 pg/mL); type: functional
[13] = tested on: RAW264.7; experiment: Antiinflammatory activity against LPS-stimulated mouse RAW264.7 cells assessed as COX2 levels at 50 umol/L by ELISA (reference value: 159.64 +/- 13.56 pg/mL); type: functional
[14] = tested on: RAW264.7; experiment: Cytotoxicity against mouse RAW264.7 cells assessed as reduction in cell viability at 50 umol/L after 24 hrs by MTT assay; type: cell-based; details: raw264.7, 24 h, 50 µM
[15] = tested on: RAW264.7; experiment: Antiinflammatory activity against LPS-stimulated mouse RAW264.7 cells assessed as iNOS levels at 50 umol/L by ELISA (reference value: 31.63 +/- 3.26 U/mL); type: functional
[16] = tested on: RAW264.7; experiment: Antiinflammatory activity against LPS-stimulated mouse RAW264.7 cells assessed as NO levels at 50 umol/L by ELISA (reference value: 0.95 +/- 0.052 umol/mL); type: functional
[17] = tested on: RAW264.7; experiment: Antiinflammatory activity against LPS-stimulated mouse RAW264.7 cells assessed as IL1beta levels at 5 umol/L by ELISA (reference value: 8.70 +/- 0.365 pg/mL); type: functional
[18] = Inhibition of NFkappaB signaling pathway in LPS-stimulated mouse RAW264.7 cells assessed as protein levels at 25 umol/L by ELISA (reference value: 1.23 +/- 0.06 pg/mL); type: cell-based
[19] = tested on: RAW264.7; experiment: Antiinflammatory activity against LPS-stimulated mouse RAW264.7 cells assessed as COX2 levels at 25 umol/L by ELISA (reference value: 159.64 +/- 13.56 pg/mL); type: functional
[20] = tested on: RAW264.7; experiment: Antiinflammatory activity against LPS-stimulated mouse RAW264.7 cells assessed as PGE2 levels at 5 umol/L by ELISA (reference value: 33.2 +/- 2.33 pg/mL); type: functional
[21] = tested on: RAW264.7; experiment: Antiinflammatory activity against LPS-stimulated mouse RAW264.7 cells assessed as PGE2 levels at 50 umol/L by ELISA (reference value: 33.2 +/- 2.33 pg/mL); type: functional
[22] = tested on: RAW264.7; experiment: Antiinflammatory activity against LPS-stimulated mouse RAW264.7 cells assessed as iNOS levels at 25 umol/L by ELISA (reference value: 31.63 +/- 3.26 U/mL); type: functional
[23] = tested on: RAW264.7; experiment: Antiinflammatory activity against LPS-stimulated mouse RAW264.7 cells assessed as NO levels at 5 umol/L by ELISA (reference value: 0.95 +/- 0.052 umol/mL); type: functional
[24] = tested on: RAW264.7; experiment: Antiinflammatory activity against LPS-stimulated mouse RAW264.7 cells assessed as downregulation of COX2 levels by ELISA; type: functional, cell-based
[25] = tested on: RAW264.7; experiment: Antiinflammatory activity against LPS-stimulated mouse RAW264.7 cells assessed as downregulation of iNOS levels by ELISA; type: functional, cell-based
[26] = Inhibition of NFkappaB signaling pathway in LPS-stimulated mouse RAW264.7 cells by ELISA; type: cell-based
[27] = tested on: RAW264.7; experiment: Antiinflammatory activity against LPS-stimulated mouse RAW264.7 cells assessed as downregulation of NO levels by ELISA; type: functional, cell-based
[28] = tested on: RAW264.7; experiment: Antiinflammatory activity against LPS-stimulated mouse RAW264.7 cells assessed as downregulation of PGE2 levels by ELISA; type: functional, cell-based
[29] = tested on: RAW264.7; experiment: Antiinflammatory activity against LPS-stimulated mouse RAW264.7 cells assessed as COX2 levels by ELISA (reference value: 159.64 +/- 13.56 pg/mL); type: functional
[30] = Inhibition of NFkappaB signaling pathway in LPS-stimulated mouse RAW264.7 cells assessed as protein levels by ELISA (reference value: 1.23 +/- 0.06 pg/mL); type: cell-based
[31] = tested on: RAW264.7; experiment: Antiinflammatory activity against LPS-stimulated mouse RAW264.7 cells assessed as PGE2 levels by ELISA (reference value: 33.2 +/- 2.33 pg/mL); type: functional
[32] = tested on: RAW264.7; experiment: Antiinflammatory activity against LPS-stimulated mouse RAW264.7 cells assessed as TNFalpha levels by ELISA (reference value: 183.21 +/- 5.36 pg/mL); type: functional
[33] = tested on: RAW264.7; experiment: Antiinflammatory activity against LPS-stimulated mouse RAW264.7 cells assessed as iNOS levels by ELISA (reference value: 31.63 +/- 3.26 U/mL); type: functional
[34] = tested on: RAW264.7; experiment: Antiinflammatory activity against LPS-stimulated mouse RAW264.7 cells assessed as IL1beta levels by ELISA (reference value: 8.70 +/- 0.365 pg/mL); type: functional
[35] = tested on: RAW264.7; experiment: Antiinflammatory activity against LPS-stimulated mouse RAW264.7 cells assessed as NO levels by ELISA (reference value: 0.95 +/- 0.052 umol/mL); type: functional

Row | SMILES | Activity [1] | Activity [2] | Activity [3] | Activity [4] | Activity [5] | Activity [6] | Activity [7] | Activity [8] | Activity [9] | Activity [10] | Activity [11] | Activity [12] | Activity [13] | Activity [14] | Activity [15] | Activity [16] | Activity [17] | Activity [18] | Activity [19] | Activity [20] | other results
1 | O=C(O)c1cc(O)c(O)c(O)c1 [GALLIC ACID] | 183.21 pg/mL | 0.07 pg/mL | 0.39 µmol/mL | 0.76 pg/mL | Non-toxic | 35.29 U/ml | 103.08 pg/mL | 80.77 pg/mL | 4.17 pg/mL | 4.13 pg/mL | 62.59 pg/mL | 32.74 pg/mL | 122.67 pg/mL | Non-toxic | 20.57 U/ml | 0.031 µmol/mL | 4.33 pg/mL | 0.14 pg/mL | 149.16 pg/mL | 33.06 pg/mL | Activity [21]: 30.26 pg/mL; Activity [22]: 29.76 U/ml; Activity [23]: 0.88 µmol/mL
2 | Oc1ccc(/C=C/c2cc(O)cc(O)c2)cc1 [RESVERATROL] | 121.49 pg/mL | 0.15 pg/mL | 0.082 µmol/mL | 0.57 pg/mL | Non-toxic | 29.22 U/ml | 109.42 pg/mL | 96.47 pg/mL | 4.76 pg/mL | 2.98 pg/mL | 74.91 pg/mL | 29.15 pg/mL | 83.48 pg/mL | Non-toxic | 19.26 U/ml | 0.053 µmol/mL | 5.26 pg/mL | 0.25 pg/mL | 104.11 pg/mL | 31.43 pg/mL | Activity [21]: 28.81 pg/mL; Activity [22]: 25.88 U/ml; Activity [23]: 0.38 µmol/mL
3 | COc1c(O)cc2c(c1O)[C@@H]1O[C@H](CO)[C@@H](O)[C@H](O)[C@H]1OC2=O [BERGENIN] | – | – | – | – | Non-toxic | – | – | – | – | – | – | – | – | Non-toxic | – | – | – | – | – | – | Activity [24]: Dose-dependent effect; Activity [25]: Dose-dependent effect; inhibition [26]: Dose-dependent effect; Activity [27]: Dose-dependent effect; Activity [28]: Dose-dependent effect
4 | COc1ccc2c(c1)c(CC(=O)O)c(C)n2C(=O)c1ccc(Cl)cc1 [INDOMETHACIN] | – | – | – | – | – | – | – | – | – | – | – | – | – | – | – | – | – | – | – | – | Activity [29]: 71.47 pg/mL; Activity [30]: 0.39 pg/mL; Activity [31]: 19.67 pg/mL; Activity [32]: 58.55 pg/mL; Activity [33]: 17.38 U/ml; Activity [34]: 3.15 pg/mL; Activity [35]: 0.17 µmol/mL
5 | O=c1c(O)c(-c2cc(O)c(O)c(O)c2)oc2cc(O)cc(O)c12 [MYRICETIN] | 174.99 pg/mL | 0.34 pg/mL | 0.24 µmol/mL | 0.453 pg/mL | Non-toxic | 24.26 U/ml | 36.23 pg/mL | 35.59 pg/mL | 0.91 pg/mL | 0.89 pg/mL | 35.44 pg/mL | 23.36 pg/mL | 118.25 pg/mL | Non-toxic | 17.44 U/ml | 0.12 µmol/mL | 3.44 pg/mL | 0.443 pg/mL | 142.13 pg/mL | 27.23 pg/mL | Activity [21]: 23.33 pg/mL; Activity [22]: 21.38 U/ml; Activity [23]: 0.42 µmol/mL
6 | O=c1c(O)cccc2cc(O)c(O)c(O)c12 [PURPUROGALLIN] | 120.78 pg/mL | 0.053 pg/mL | 0.42 µmol/mL | 0.32 pg/mL | Non-toxic | 31.37 U/ml | 52.85 pg/mL | 44.36 pg/mL | 2.95 pg/mL | 2.88 pg/mL | 42.44 pg/mL | 28.11 pg/mL | 67.23 pg/mL | Non-toxic | 21.64 U/ml | 0.21 µmol/mL | 6.7 pg/mL | 0.086 pg/mL | 67.73 pg/mL | 28.76 pg/mL | Activity [21]: 27.57 pg/mL; Activity [22]: 22.15 U/ml; Activity [23]: 0.59 µmol/mL
7 | O=C1O[C@@H]2[C@@H](O)[C@H](O)[C@@H](CO)O[C@H]2c2c1cc(O)c(O)c2O | – | – | – | – | Non-toxic | – | – | – | – | – | – | – | – | Non-toxic | – | – | – | – | – | – | Activity [24]: Dose-dependent effect; Activity [25]: Dose-dependent effect; inhibition [26]: Dose-dependent effect; Activity [27]: Dose-dependent effect; Activity [28]: Dose-dependent effect
8 | COc1c(O)cc2c(c1O)[C@@H]1O[C@H](COC(=O)c3cc(O)c(O)c(O)c3)[C@@H](O)[C@H](O)[C@H]1OC2=O | – | – | – | – | Non-toxic | – | – | – | – | – | – | – | – | Non-toxic | – | – | – | – | – | – | Activity [24]: Dose-dependent effect; Activity [25]: Dose-dependent effect; inhibition [26]: Dose-dependent effect; Activity [27]: Dose-dependent effect; Activity [28]: Dose-dependent effect
9 | COc1c(O)cc2c(c1O)[C@@H]1O[C@H](CO[C@H]3O[C@H](CO)[C@H](O)[C@H](O)[C@H]3O)[C@@H](O)[C@H](O)[C@H]1OC2=O | – | – | – | – | Non-toxic | – | – | – | – | – | – | – | – | Non-toxic | – | – | – | – | – | – | Activity [24]: Dose-dependent effect; Activity [25]: Dose-dependent effect; inhibition [26]: Dose-dependent effect; Activity [27]: Dose-dependent effect; Activity [28]: Dose-dependent effect
